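These data come from cells grown in 96-well plates and exposed to compound for 48 hours at five concentrations. TGI denotes the concentration required for complete inhibition of growth.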
Tests used:
Experiment in all cases: NCI anticancer screen, dose series, 48 h
M19-MEL melanoma = test system: M19-MEL melanoma
EKVX NSCLC = test system: EKVX NSCLC
RXF 393 renal = test system: RXF 393 renal
IGROV1 ovarian = test system: IGROV1 ovarian
MCF7 breast = test system: MCF7 breast
OVCAR-5 ovarian = test system: OVCAR-5 ovarian
OVCAR-4 ovarian = test system: OVCAR-4 ovarian
HOP-18 NSCLC = test system: HOP-18 NSCLC
NCI/ADR-RES ovarian = test system: NCI/ADR-RES ovarian
HCT-116 colon = test system: HCT-116 colon
CAKI-1 renal = test system: CAKI-1 renal
MDA-MB-231 breast = test system: MDA-MB-231 breast
MDA-N = test system: MDA-N
PC-3 prostate = test system: PC-3 prostate
786-0 renal = test system: 786-0 renal
T-47D breast = test system: T-47D breast
HS 578T breast = test system: HS 578T breast
BT-549 breast = test system: BT-549 breast
ACHN renal = test system: ACHN renal
MDA-MB-435 = test system: MDA-MB-435

SMILES | TGI (M19-MEL melanoma) | TGI (EKVX NSCLC) | TGI (RXF 393 renal) | TGI (IGROV1 ovarian) | TGI (MCF7 breast) | TGI (OVCAR-5 ovarian) | TGI (OVCAR-4 ovarian) | TGI (HOP-18 NSCLC) | TGI (NCI/ADR-RES ovarian) | TGI (HCT-116 colon) | TGI (CAKI-1 renal) | TGI (MDA-MB-231 breast) | TGI (MDA-N) | TGI (PC-3 prostate) | TGI (786-0 renal) | TGI (T-47D breast) | TGI (HS 578T breast) | TGI (BT-549 breast) | TGI (ACHN renal) | TGI (MDA-MB-435)
COc1cc(N=Nc2cccc(S(=O)(=O)O)c2)ccc1N=Nc1ccc(/C=C/c2ccc(-n3on3-c3ccc(/C=C/c4ccc(N=Nc5ccc(N=Nc6cccc(S(=O)(=O)O)c6)cc5OC)cc4S(=O)(=O)O)c(S(=O)(=O)O)c3)cc2S(=O)(=O)O)c(S(=O)(=O)O)c1 | > 100 µM | > 100 µM | > 100 µM | > 100 µM | > 100 µM | > 100 µM | > 100 µM | > 100 µM | > 100 µM | > 100 µM |  |  |  |  |  |  |  |  |  | 
N#CC(OC1OC(COC2OC(CO)C(O)C(O)C2O)C(O)C(O)C1O)c1ccccc1 (stereo unspecified) | > 225 µM | > 225 µM | > 225 µM | > 225 µM | > 225 µM | > 225 µM | > 225 µM | > 225 µM | > 225 µM | > 225 µM | > 225 µM |  |  |  |  |  |  |  |  | 
CCC(C)C1NC(=O)C(NC(=O)c2c3[nH]c4c(C(=O)NC5C(=O)NC(C(C)CC)C(=O)N6CCCC6C(=O)N(C)CC(=O)N(C)C(C(C)C)C(=O)OC5C)ccc(C)c4oc-3c(C)c(=O)c2=O)C(C)OC(=O)C(C(C)C)N(C)C(=O)CN(C)C(=O)C2CCCN2C1=O (stereo unspecified) |  | > 100 µM | 25 µM | > 100 µM | > 33 µM | > 100 µM | > 89.1 µM |  | > 100 µM | 40.4 µM | > 91.2 µM | 55.2 µM | 33 µM | > 100 µM | > 79.9 µM | > 40.5 µM | 37.8 µM | > 72.4 µM | 65.2 µM | > 71.6 µM
C=CC1C(OC2OC(CO)C(O)C(O)C2O)OC=C(C(=O)OC)C1CC1CC(=O)CC(CCc2ccc(O)cc2)O1 (stereo unspecified) |  | > 100 µM | > 100 µM | > 100 µM | > 100 µM | > 100 µM | > 100 µM |  | > 100 µM | > 100 µM | > 100 µM | > 100 µM | > 100 µM | > 100 µM | > 100 µM | > 100 µM | > 100 µM | > 100 µM | > 100 µM | > 100 µM
O=C1NP23(OCCO2)Oc2ccccc2C3(C(F)(F)F)O1 (stereo unspecified) | > 100 µM |  |  |  |  |  | > 100 µM | > 100 µM |  | > 100 µM |  |  |  |  |  |  |  |  | > 100 µM | 
O=C(O)C1C2C=CC(C2)C1c1ccccc1 (stereo unspecified) |  | > 100 µM | > 100 µM |  | > 100 µM | > 100 µM |  |  | > 100 µM | > 100 µM | > 100 µM | > 100 µM | > 100 µM | > 100 µM | > 100 µM | > 100 µM | > 100 µM |  | > 100 µM | > 100 µM
CCOP(=O)(COCCn1ncc(=O)[nH]c1=O)OCC |  | > 100 µM | > 100 µM | > 100 µM | > 100 µM | > 100 µM |  |  | > 100 µM |  | > 100 µM | > 100 µM | > 100 µM | > 100 µM |  | > 100 µM | > 100 µM | > 100 µM | > 100 µM | > 100 µM
CN1C(=O)CSC1=S | > 100 µM |  | > 100 µM | > 100 µM |  | > 100 µM | > 100 µM | > 100 µM |  | > 100 µM | > 100 µM |  |  |  | > 100 µM |  |  |  | > 100 µM | 
COc1ccc(/C(Cl)=C(\C=O)c2ccc(OC)c(OC)c2)cc1 | > 100 µM | > 100 µM |  | > 100 µM |  |  |  | > 100 µM |  |  | > 100 µM |  |  |  |  |  |  |  | > 100 µM | 
CC(=O)O/C(=C1\C[C@H]2[C@@H]3CC=C4C[C@@H](OC(C)=O)CC[C@]4(C)[C@H]3CC[C@]2(C)C1=O)C(F)(F)F |  | 37.9 µM | 15 µM | 19.8 µM | 17.8 µM | 58.6 µM | 61.4 µM |  | 46.6 µM | 18.8 µM | 24.3 µM | 27.6 µM | 14.9 µM | 27.3 µM | 20.6 µM | 21.2 µM | 20.8 µM | 34.7 µM | 48 µM | 16.4 µM
COc1ccc(CC2c3cc(OC)c(OC)cc3CC[N+]2(C)C)cc1OC (stereo unspecified) |  | > 100 µM |  | > 100 µM | > 100 µM | > 100 µM | > 100 µM |  | > 100 µM | > 100 µM | > 100 µM | > 100 µM | > 100 µM | > 100 µM | > 100 µM | > 100 µM | > 100 µM | > 100 µM | > 100 µM | > 100 µM
COc1cccc2cc(C(=O)O)c(=O)oc12 |  | > 100 µM | > 100 µM | > 100 µM | > 100 µM | > 100 µM | > 100 µM |  | > 100 µM | > 100 µM | > 100 µM | > 100 µM | > 100 µM | > 100 µM | > 100 µM | > 100 µM | > 100 µM | > 100 µM | > 100 µM | > 100 µM
COc1c(OC(C)=O)c(OC(C)=O)cc2c1-c1ccc(SC)c(=O)cc1C(NC(C)=O)CC2 (stereo unspecified) | > 100 µM | > 100 µM | > 86.7 µM | > 100 µM | > 100 µM | > 100 µM | > 100 µM | > 100 µM | > 100 µM | > 100 µM | > 87.1 µM | > 100 µM | 0.576 µM | > 100 µM | > 100 µM | > 100 µM | 0.701 µM | > 100 µM | > 100 µM | 0.632 µM

From PubChem BioAssay (NCI)
